Measurements as given in patent EP2951180B1, “2,6,7,8 SUBSTITUTED PURINES AS HDM2 INHIBITORS” (Merck Sharp & Dohme Corp., priority 2013, dated 2014).

target: T1, HDM2 (Homo sapiens, UniProt Q00987); test: HDM2 FRET assay (inhibition of binding of FITC labeled p53-pocket peptide to HDM2); settings: Table 7; read-out: FRET IC50
T1 construct: Thioredoxin (N); made in house; host or cells: E. coli strain BL21(DE3)Rosetta
Outline: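 Final: 0.5 nM His-HDM2, 3 nM FITC peptide, 0.25 nM Tb anti-His Ab; PBS, 0.01% BSA, 0.01% Tween-20; 0.1% DMSO.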

T1 sequence (Q00987 17-125): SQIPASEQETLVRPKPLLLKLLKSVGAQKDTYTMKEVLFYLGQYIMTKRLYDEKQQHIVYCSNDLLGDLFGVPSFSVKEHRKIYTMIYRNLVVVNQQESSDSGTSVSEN

| Structure (SMILES) | IC50 |
| --- | --- |
| Cc1cccc(-c2nc3nc(C(=O)O)nc(N[C@H](CCCO)C4CCC4)c3n2Cc2ccc(Cl)cc2)c1 [Example 7.1, 7-(4-chlorobenzyl)-6-{[(1R)-1-cyclobutyl-4-hydroxybutyl]amino}-8-(3-methylphenyl)-7H-purine-2-carboxylic acid] | 0.105 µM |
| Cc1cccc(-c2nc3nc(C(=O)O)nc(N[C@H](CCCO)C4CCC4)c3n2Cc2ccc(C(F)(F)F)cc2)c1 [Example 7.2, 6-{[(1R)-1-cyclobutyl-4-hydroxybutyl]amino}-8-(3-methylphenyl)-7-[4-(trifluoromethyl)benzyl]-7H-purine-2-carboxylic acid] | 0.041 µM |
| Cc1cccc(-c2nc3ncnc(N[C@H](CCCO)C4CCC4)c3n2Cc2ccc(C(F)(F)F)cc2)c1 [Example 7.3, (4R)-4-cyclobutyl-4-({8-(3-methylphenyl)-7-[4-(trifluoromethyl)benzyl]-7H-purin-6-yl}amino)butan-1-ol] | 3.24 µM |
| CCC[C@@H](Nc1nc(C(=O)O)nc2nc(-c3cccc(C)c3)n(Cc3ccc(C(F)(F)F)cc3)c12)C1CCC1 [Example 7.5, 6-{[(1R)-1-cyclobutylbutyl]amino}-8-(3-methylphenyl)-7-[4-(trifluoromethyl)benzyl]-7H-purine-2-carboxylic acid] | 0.142 µM |
| Cc1cccc(-c2nc3nc(C(=O)O)nc(N[C@H](CCC(=O)NCCO)C4CCC4)c3n2Cc2ccc(C(F)(F)F)cc2)c1 [Example 7.7, 6-({(1R)-1-cyclobutyl-4-[(2-hydroxyethyl)amino]-4-oxobutyl}amino)-8-(3-methylphenyl)-7-[4-(trifluoromethyl)benzyl]-7H-purine-2-carboxylic acid] | 0.832 µM |
| Cc1cccc(-c2nc3nc(C(=O)O)nc(N4CCC[C@@H]4C4CCC4)c3n2Cc2ccc(C(F)(F)F)cc2)c1 [Example 7.8, 6-[(2R)-2-cyclobutylpyrrolidin-1-yl]-8-(3-methylphenyl)-7-[4-(trifluoromethyl)benzyl]-7H-purine-2-carboxylic acid] | 0.188 µM |
| Cc1cccc(-c2nc3ncnc(N4CCC[C@@H]4C4CCC4)c3n2Cc2ccc(C(F)(F)F)cc2)c1 [Example 7.9, 6-[(2R)-2-cyclobutylpyrrolidin-1-yl]-8-(3-methylphenyl)-7-[4-(trifluoromethyl)benzyl]-7H-purine] | 4.48 µM |
| Cc1cccc(-c2nc3nc(C(=O)O)nc(N[C@H](CCCN4CCN(C)CC4)C4CCC4)c3n2Cc2ccc(C(F)(F)F)cc2)c1 [Example 7.10, 6-{[(1R)-1-cyclobutyl-4-(4-methylpiperazin-1-yl)butyl]amino}-8-(3-methylphenyl)-7-[4-(trifluoromethyl)benzyl]-7H-purine-2-carboxylic acid] | 0.0943 µM |
| Cc1cccc(-c2nc3nc(C(=O)O)nc(N[C@H](CCCN(C)C)C4CCC4)c3n2Cc2ccc(C(F)(F)F)cc2)c1 [Example 7.11, 6-{[(1R)-1-cyclobutyl-4-(dimethylamino)butyl]amino}-8-(3-methylphenyl)-7-[4-(trifluoromethyl)benzyl]-7H-purine-2-carboxylic acid] | 0.323 µM |
| Cc1cccc(-c2nc3nc(C(=O)O)nc(N[C@H](CCC(N)=O)C4CCC4)c3n2Cc2ccc(C(F)(F)F)cc2)c1 [Example 7.12, 6-{[(1R)-4-amino-1-cyclobutyl-4-oxobutyl]amino}-8-(3-methylphenyl)-7-[4-(trifluoromethyl)benzyl]-7H-purine-2-carboxylic acid] | 0.0553 µM |
| CNC(=O)CC[C@@H](Nc1nc(C(=O)O)nc2nc(-c3cccc(C)c3)n(Cc3ccc(C(F)(F)F)cc3)c12)C1CCC1 [Example 7.13, 6-{[(1R)-1-cyclobutyl-4-(methylamino)-4-oxobutyl]amino}-8-(3-methylphenyl)-7-[4-(trifluoromethyl)benzyl]-7H-purine-2-carboxylic acid] | 0.102 µM |
| Cc1cccc(-c2nc3nc(C(=O)O)nc(N[C@H](CC(O)CO)C4CCC4)c3n2Cc2ccc(C(F)(F)F)cc2)c1 (stereo partly drawn) [Example 7.15, 6-{[(1R)-1-cyclobutyl-3,4-dihydroxybutyl]amino}-8-(3-methylphenyl)-7-[4-(trifluoromethyl)benzyl]-7H-purine-2-carboxylic acid] | 0.0265 µM |
